Key:
A549 = experiment: Cytotoxicity against human A549 cells assessed as inhibition of cell growth after 24 hrs by MTT assay; assay type: functional, cell-based; settings: A549, 24 h
[1] = Cytotoxicity against human HL7702 cells assessed as inhibition of cell growth after 24 hrs by MTT assay; assay type: cell-based; settings: L02, 24 h
[2] = Cytotoxicity against human Bel7402 cells assessed as inhibition of cell growth after 24 hrs by MTT assay; assay type: functional, cell-based; settings: Bel-7402, 24 h
[3] = Ratio of hemolytic HD50 for PSA to hemolytic HD50 for compound in rabbit RBC; assay type: ADME, cell-based, Oryctolagus cuniculus; settings: erythrocyte
[4] = Hemolytic activity in rabbit RBC assessed as induction of hemolysis; assay type: cell-based, Oryctolagus cuniculus, Erythrocyte; settings: red blood cells, read-out: HD50 (the source's name)
SMMC-7721 = experiment: Cytotoxicity against human SMMC7721 cells assessed as inhibition of cell growth after 24 hrs by MTT assay; assay type: functional, cell-based; settings: SMMC-7721, 24 h
[5] = Ratio of hemolytic HD50 for PSD to hemolytic HD50 for compound in rabbit RBC; assay type: ADME, cell-based, Oryctolagus cuniculus; settings: erythrocyte
[6] = Toxicity in iv dosed mouse assessed as tolerance dose; assay type: organism-based; settings: in vivo
Mus musculus [7] = experiment: Toxicity in mouse assessed as death time at 0.1 mL/10 g, iv; assay type: organism-based; settings: in vivo
Mus musculus [8] = experiment: Toxicity in mouse assessed as induction of hematuria at 0.1 mL/10 g, iv; assay type: organism-based; settings: in vivo
Mus musculus [9] = experiment: Toxicity in mouse assessed as induction of induction of death at 0.1 mL/10 g, iv; assay type: organism-based; settings: in vivo

| SMILES | IC50 (A549) [µM] | IC50 [1] [µM] | IC50 [2] [µM] | Ratio [3] | HC50 [4] [µM] | IC50 (SMMC-7721) [µM] | Ratio [5] | MTD [6] [mg/kg] | Time (Mus musculus [7]) [days] | Activity (Mus musculus [8]) | Activity (Mus musculus [9]) |
| --- | --- | --- | --- | --- | --- | --- | --- | --- | --- | --- | --- |
| C[C@@H]1O[C@@H](O[C@H]2[C@H](O[C@H]3CC[C@@]4(C)[C@@H](CC[C@]5(C)[C@@H]4CC=C4[C@@H]6CC(C)(C)CC[C@]6(C(=O)N6CCOCC6)CC[C@]45C)[C@]3(C)CO)OC[C@H](O)[C@@H]2O)[C@H](O)[C@H](O)[C@H]1O | 34.7 | 22 | 37.9 | 20 | 230 | 17.2 | – | – | – | – | – |
| COC(=O)CCN1CCN(C(=O)[C@]23CCC(C)(C)C[C@H]2C2=CC[C@@H]4[C@@]5(C)CC[C@H](O[C@@H]6OC[C@H](O)[C@H](O)[C@H]6O[C@@H]6O[C@@H](C)[C@H](O)[C@@H](O)[C@H]6O)[C@@](C)(CO)[C@@H]5CC[C@@]4(C)[C@]2(C)CC3)CC1 | 14 | 61.7 | 53.2 | – | 57.7 | 38.3 | – | – | – | – | – |
| C[C@@H]1O[C@@H](O[C@H]2[C@H](O[C@H]3CC[C@@]4(C)[C@@H](CC[C@]5(C)[C@@H]4CC=C4[C@@H]6CC(C)(C)CC[C@]6(C(=O)NC6CC6)CC[C@]45C)[C@]3(C)CO)OC[C@H](O)[C@@H]2O)[C@H](O)[C@H](O)[C@H]1O | 38.3 | 36.2 | 69.2 | – | 127 | 32.6 | – | – | – | – | – |
| CC(=O)OCOC(=O)[C@]12CCC(C)(C)C[C@H]1C1=CC[C@@H]3[C@@]4(C)CC[C@H](O[C@@H]5OC[C@H](O)[C@H](O)[C@H]5O[C@@H]5O[C@@H](C)[C@H](O)[C@@H](O)[C@H]5O)[C@@](C)(CO)[C@@H]4CC[C@@]3(C)[C@]1(C)CC2 | 21.3 | 20.5 | 33.8 | – | 3.6 | 13.2 | – | – | – | – | – |
| C[C@@H]1O[C@@H](O[C@H]2[C@H](O[C@H]3CC[C@@]4(C)[C@@H](CC[C@]5(C)[C@@H]4CC=C4[C@@H]6CC(C)(C)CC[C@]6(C(=O)N6CCN(CCC(=O)O)CC6)CC[C@]45C)[C@]3(C)CO)OC[C@H](O[C@@H]3O[C@H](CO)[C@@H](O)[C@H](O)[C@H]3O)[C@@H]2O)[C@H](O)[C@H](O)[C@H]1O | 1.9 | 1.3 | 9.8 | – | 119 | 14.5 | 20 | – | – | – | – |
| C[C@@H]1O[C@@H](O[C@H]2[C@H](O[C@H]3CC[C@@]4(C)[C@@H](CC[C@]5(C)[C@@H]4CC=C4[C@@H]6CC(C)(C)CC[C@]6(C(=O)NCCN6CCCC6)CC[C@]45C)[C@]3(C)CO)OC[C@H](O)[C@@H]2O)[C@H](O)[C@H](O)[C@H]1O | > 100 | 44.4 | > 100 | – | 104 | 46.8 | – | – | – | – | – |
| C[C@@H]1O[C@@H](O[C@H]2[C@H](O[C@H]3CC[C@@]4(C)[C@@H](CC[C@]5(C)[C@@H]4CC=C4[C@@H]6CC(C)(C)CC[C@]6(C(=O)NCC(=O)[O-])CC[C@]45C)[C@]3(C)CO)OC[C@H](O[C@@H]3O[C@H](CO)[C@@H](O)[C@H](O)[C@H]3O)[C@@H]2O)[C@H](O)[C@H](O)[C@H]1O.[Na+] | – | – | – | – | – | – | – | > 160 | > 14 | Non-toxic | Non-toxic |
| C[C@@H]1O[C@@H](O[C@H]2[C@H](O[C@H]3CC[C@@]4(C)[C@@H](CC[C@]5(C)[C@@H]4CC=C4[C@@H]6CC(C)(C)CC[C@]6(C(=O)N6CCN(CCC(=O)O)CC6)CC[C@]45C)[C@]3(C)CO)OC[C@H](O)[C@@H]2O)[C@H](O)[C@H](O)[C@H]1O | 23.4 | 46.6 | > 100 | 20 | 195 | > 100 | – | – | – | – | – |
| C[C@@H]1O[C@@H](O[C@H]2[C@H](O[C@H]3CC[C@@]4(C)[C@@H](CC[C@]5(C)[C@@H]4CC=C4[C@@H]6CC(C)(C)CC[C@]6(C(=O)N6CCC[C@@H]6C(=O)O)CC[C@]45C)[C@]3(C)CO)OC[C@H](O)[C@@H]2O)[C@H](O)[C@H](O)[C@H]1O | 61.6 | 53.7 | 64 | – | 22.9 | 41.4 | – | – | – | – | – |
| C[C@@H]1O[C@@H](O[C@H]2[C@H](O[C@H]3CC[C@@]4(C)[C@@H](CC[C@]5(C)[C@@H]4CC=C4[C@@H]6CC(C)(C)CC[C@]6(C(N)=O)CC[C@]45C)[C@]3(C)CO)OC[C@H](O)[C@@H]2O)[C@H](O)[C@H](O)[C@H]1O | > 100 | > 100 | > 100 | – | 30.2 | > 100 | – | – | – | – | – |
| C[C@@H]1O[C@@H](O[C@H]2[C@H](O[C@H]3CC[C@@]4(C)[C@@H](CC[C@]5(C)[C@@H]4CC=C4[C@@H]6CC(C)(C)CC[C@]6(C(=O)[O-])CC[C@]45C)[C@]3(C)CO)OC[C@H](O[C@@H]3O[C@H](CO)[C@@H](O)[C@H](O)[C@H]3O)[C@@H]2O)[C@H](O)[C@H](O)[C@H]1O.[Na+] | – | – | – | – | – | – | – | 10 | < 0.0417 | Toxic | Toxic |
| COC(=O)[C@@H](CO)NC(=O)[C@]12CCC(C)(C)C[C@H]1C1=CC[C@@H]3[C@@]4(C)CC[C@H](O[C@@H]5OC[C@H](O)[C@H](O)[C@H]5O[C@@H]5O[C@@H](C)[C@H](O)[C@@H](O)[C@H]5O)[C@@](C)(CO)[C@@H]4CC[C@@]3(C)[C@]1(C)CC2 | > 100 | > 100 | > 100 | 20 | 144 | 88.3 | – | – | – | – | – |
| C[C@@H]1O[C@@H](O[C@H]2[C@H](O[C@H]3CC[C@@]4(C)[C@@H](CC[C@]5(C)[C@@H]4CC=C4[C@@H]6CC(C)(C)CC[C@]6(C(=O)N[C@H](CO)C(=O)O)CC[C@]45C)[C@]3(C)CO)OC[C@H](O)[C@@H]2O)[C@H](O)[C@H](O)[C@H]1O | 32.5 | 25.6 | 22.3 | – | 8.3 | 26.6 | – | – | – | – | – |
| C[C@@H]1O[C@@H](O[C@H]2[C@H](O[C@H]3CC[C@@]4(C)[C@@H](CC[C@]5(C)[C@@H]4CC=C4[C@@H]6CC(C)(C)CC[C@]6(C(=O)[O-])CC[C@]45C)[C@]3(C)CO)OC[C@H](O)[C@@H]2O)[C@H](O)[C@H](O)[C@H]1O.[Na+] | – | – | – | – | – | – | – | 10 | < 0.0417 | Toxic | Toxic |
| C[C@@H]1O[C@@H](O[C@H]2[C@H](O[C@H]3CC[C@@]4(C)[C@@H](CC[C@]5(C)[C@@H]4CC=C4[C@@H]6CC(C)(C)CC[C@]6(C(=O)NCC(=O)O)CC[C@]45C)[C@]3(C)CO)OC[C@H](O)[C@@H]2O)[C@H](O)[C@H](O)[C@H]1O | 1 | > 100 | 0.9 | 20 | > 500 | 3.2 | – | – | – | – | – |
| COC(=O)[C@H]1CCCN1C(=O)[C@]12CCC(C)(C)C[C@H]1C1=CC[C@@H]3[C@@]4(C)CC[C@H](O[C@@H]5OC[C@H](O)[C@H](O)[C@H]5O[C@@H]5O[C@@H](C)[C@H](O)[C@@H](O)[C@H]5O)[C@@](C)(CO)[C@@H]4CC[C@@]3(C)[C@]1(C)CC2 | 43.2 | 36.6 | 59.6 | 20 | 494 | 36 | – | – | – | – | – |
| C[C@@H]1O[C@@H](O[C@H]2[C@H](O[C@H]3CC[C@@]4(C)[C@@H](CC[C@]5(C)[C@@H]4CC=C4[C@@H]6CC(C)(C)CC[C@]6(C(=O)Nc6ccccc6O)CC[C@]45C)[C@]3(C)CO)OC[C@H](O)[C@@H]2O)[C@H](O)[C@H](O)[C@H]1O | > 100 | 85.5 | > 100 | – | 58.2 | 1.3 | – | – | – | – | – |
| COC(=O)[C@]12CCC(C)(C)C[C@H]1C1=CC[C@@H]3[C@@]4(C)CC[C@H](O[C@@H]5OC[C@H](O)[C@H](O)[C@H]5O[C@@H]5O[C@@H](C)[C@H](O)[C@@H](O)[C@H]5O)[C@@](C)(CO)[C@@H]4CC[C@@]3(C)[C@]1(C)CC2 | 27 | 36.3 | 72.1 | – | 8.5 | 40.8 | – | – | – | – | – |
| CCN(CC)CCNC(=O)[C@]12CCC(C)(C)C[C@H]1C1=CC[C@@H]3[C@@]4(C)CC[C@H](O[C@@H]5OC[C@H](O)[C@H](O)[C@H]5O[C@@H]5O[C@@H](C)[C@H](O)[C@@H](O)[C@H]5O)[C@@](C)(CO)[C@@H]4CC[C@@]3(C)[C@]1(C)CC2 | 65.3 | 40.6 | > 100 | – | 75.3 | 48 | – | – | – | – | – |
| C[C@@H]1O[C@@H](O[C@H]2[C@H](O[C@H]3CC[C@@]4(C)[C@@H](CC[C@]5(C)[C@@H]4CC=C4[C@@H]6CC(C)(C)CC[C@]6(C(=O)Nc6ccc(C(=O)O)cc6)CC[C@]45C)[C@]3(C)CO)OC[C@H](O)[C@@H]2O)[C@H](O)[C@H](O)[C@H]1O | 1.1 | 0.7 | 4.2 | 20 | 356 | > 100 | – | – | – | – | – |
| C[C@@H]1O[C@@H](O[C@H]2[C@H](O[C@H]3CC[C@@]4(C)[C@@H](CC[C@]5(C)[C@@H]4CC=C4[C@@H]6CC(C)(C)CC[C@]6(C(=O)NCC(=O)[O-])CC[C@]45C)[C@]3(C)CO)OC[C@H](O)[C@@H]2O)[C@H](O)[C@H](O)[C@H]1O.[Na+] | – | – | – | – | – | – | – | > 160 | > 14 | Non-toxic | Non-toxic |

Reference: ChEMBL document CHEMBL3425467, “Synthesis, cytotoxicity and haemolytic activity of Pulsatilla saponin A, D derivatives” (Bioorg Med Chem Lett, 2015)
